Reference: PubChem BioAssay (NCI)
Where “and” joins values, the source holds several entries; their conditions need not be identical. Equal entries are not always repeated.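 1) Cells in 96-well plates. 2) Compound, 48 h, 5 concentrations. 3) Linear interpolation between surrounding doses. 4) Unreached endpoint = highest concentration. GI50 marks 50% less growth. TGI: concentration producing complete growth inhibition.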

Experiments:
Assay in all cases: growth of human tumour cells (NCI), 48 h
SNB-19 CNS = tested on: SNB-19 CNS
MALME-3M melanoma = tested on: MALME-3M melanoma
HOP-92 NSCLC = tested on: HOP-92 NSCLC
SNB-75 CNS = tested on: SNB-75 CNS
PC-3 prostate = tested on: PC-3 prostate
T-47D breast = tested on: T-47D breast
OVCAR-4 ovarian = tested on: OVCAR-4 ovarian
SF-268 CNS = tested on: SF-268 CNS
NCI-H522 lung = tested on: NCI-H522 lung
OVCAR-8 ovarian = tested on: OVCAR-8 ovarian
KM12 colon = tested on: KM12 colon
HT29 colon = tested on: HT29 colon
HS 578T breast = tested on: HS 578T breast
RPMI-8226 leukemia = tested on: RPMI-8226 leukemia
UO-31 renal = tested on: UO-31 renal
MOLT-4 leukemia = tested on: MOLT-4 leukemia
DU-145 prostate = tested on: DU-145 prostate
OVCAR-5 ovarian = tested on: OVCAR-5 ovarian
SN12C renal = tested on: SN12C renal
TK-10 renal = tested on: TK-10 renal
RXF 393 renal = tested on: RXF 393 renal
COLO 205 colon = tested on: COLO 205 colon
SK-MEL-28 melanoma = tested on: SK-MEL-28 melanoma
NCI/ADR-RES ovarian = tested on: NCI/ADR-RES ovarian
MCF7 breast = tested on: MCF7 breast
HOP-62 NSCLC = tested on: HOP-62 NSCLC
NCI-H23 lung = tested on: NCI-H23 lung
786-0 renal = tested on: 786-0 renal
M14 melanoma = tested on: M14 melanoma
SF-539 CNS = tested on: SF-539 CNS
HCT-116 colon = tested on: HCT-116 colon
HCT-15 colon = tested on: HCT-15 colon
EKVX NSCLC = tested on: EKVX NSCLC
A498 renal = tested on: A498 renal
LOX IMVI melanoma = tested on: LOX IMVI melanoma
MDA-MB-231 breast = tested on: MDA-MB-231 breast
U251 CNS = tested on: U251 CNS
SW-620 colon = tested on: SW-620 colon
HL-60(TB) leukemia = tested on: HL-60(TB) leukemia
HCC-2998 colon = tested on: HCC-2998 colon
BT-549 breast = tested on: BT-549 breast
K-562 leukemia = tested on: K-562 leukemia
NCI-H460 lung = tested on: NCI-H460 lung
UACC-62 melanoma = tested on: UACC-62 melanoma
CAKI-1 renal = tested on: CAKI-1 renal
IGROV1 ovarian = tested on: IGROV1 ovarian
MDA-MB-435 = tested on: MDA-MB-435
SK-OV-3 ovarian = tested on: SK-OV-3 ovarian
CCRF-CEM leukemia = tested on: CCRF-CEM leukemia

## C/C=C/C1=CN2C(=O)c3cc(OC4OC(C)C(NC)C(C)(O)C4O)c(C)cc3N=C[C@@H]2C1 (stereo partly specified)
SNB-19 CNS
  GI50: 30.7 nM
  TGI: 12400 nM
MALME-3M melanoma
  GI50: 20.1 nM
  TGI: 39.6 nM
HOP-92 NSCLC
  GI50: 68.7 nM
  TGI: > 100000 nM
SNB-75 CNS
  GI50: 15.9 nM
  TGI: 55.5 nM
PC-3 prostate
  GI50: 44.1 nM
  TGI: 26800 nM
T-47D breast
  GI50: 24.7 nM
OVCAR-4 ovarian
  GI50: 25.8 nM
SF-268 CNS
  GI50: 21.6 nM
  TGI: 37.2 nM
NCI-H522 lung
  GI50: 7.62 nM
  TGI: 30.1 nM
OVCAR-8 ovarian
  GI50: 17.9 nM
  TGI: 87 nM
KM12 colon
  GI50: 34.5 nM
  TGI: 544 nM
HT29 colon
  GI50: 24.2 nM
  TGI: 66 nM
HS 578T breast
  GI50: 53.9 nM
RPMI-8226 leukemia
  GI50: 24.6 nM
  TGI: 94.7 nM
UO-31 renal
  GI50: 24 nM
  TGI: 59.6 nM
MOLT-4 leukemia
  GI50: 12.4 nM
  TGI: 178 nM
DU-145 prostate
  GI50: 38.2 nM
  TGI: 1580 nM
OVCAR-5 ovarian
  GI50: 43.1 nM
  TGI: 10400 nM
SN12C renal
  GI50: 33 nM
  TGI: 11100 nM
TK-10 renal
  GI50: 26.4 nM
  TGI: 68.3 nM
RXF 393 renal
  GI50: 14 nM
  TGI: 31.5 nM
COLO 205 colon
  GI50: 17.5 nM
  TGI: 41.1 nM
SK-MEL-28 melanoma
  GI50: 22.5 nM
  TGI: 50.8 nM
NCI/ADR-RES ovarian
  TGI: 735 nM
MCF7 breast
  GI50: 8.47 nM
  TGI: 11900 nM
HOP-62 NSCLC
  GI50: 22.2 nM
  TGI: 70.3 nM
NCI-H23 lung
  GI50: 19.7 nM
  TGI: 282 nM
786-0 renal
  GI50: 22.6 nM
  TGI: 49.3 nM
M14 melanoma
  GI50: 14.1 nM
  TGI: 31.2 nM
SF-539 CNS
  GI50: 18.3 nM
  TGI: 137 nM
HCT-116 colon
  TGI: 11600 nM
HCT-15 colon
  GI50: 174 nM
  TGI: 11500 nM
EKVX NSCLC
  GI50: 242 nM
  TGI: 20.3 nM
A498 renal
  GI50: 17.3 nM
  TGI: 31.9 nM
LOX IMVI melanoma
  GI50: 13.3 nM
  TGI: 41.5 nM
MDA-MB-231 breast
  GI50: 35.7 nM
  TGI: 17100 nM
U251 CNS
  GI50: 14.8 nM
  TGI: 245 nM and 130 nM
SW-620 colon
  GI50: 22.4 nM
HL-60(TB) leukemia
  GI50: 21.1 nM
  TGI: 101 nM
HCC-2998 colon
  GI50: 58.5 nM
  TGI: 336 nM
BT-549 breast
  GI50: 19.1 nM
  TGI: 40.8 nM
K-562 leukemia
  GI50: 25.8 nM
NCI-H460 lung
  GI50: 23.7 nM
UACC-62 melanoma
  GI50: 16.7 nM
  TGI: 36.1 nM
CAKI-1 renal
  GI50: 39.1 nM
IGROV1 ovarian
  GI50: 30 nM
MDA-MB-435
  GI50: 15.8 nM
  TGI: 32 nM
SK-OV-3 ovarian
  TGI: 11900 nM
CCRF-CEM leukemia
  GI50: 13 nM
